Data on one compound can be found in patent US9265774B2, “Methods, compounds and pharmaceutical compositions for treating anxiety and mood disorders” (New York University, priority 2011, dated 2016).

For series [1] the following is noted: prazosin: at 0.2 mg/kg in mice; cited from earlier work.
For series [2], the system named is Fos expression in the PVH. Description: Fos expression in the PVH during the RFS model. The format is in vivo, mice. The note with it: dp6FNE 3 mg/kg i.p. 15 min prior to the 5th swim, with prazosin 0.2 mg/kg; swum animals, versus vehicle. The method, then: (§1) In the RFS study, mice were subjected to 4 daily 15 min swims as described above and were injected i.p. with either vehicle or dp6FNE (3 mg/kg) 15 min prior to the 5th swim. In the TST study, animals were injected similarly before a 6 min test. […] The animals were anesthetized and perfused for immuno-histochemistry 70 min after the start of the swim or tail suspension. Brains were processed as described previously for double-label immunofluorescent Fos/tyrosine hydroxylase staining of all sections through the LC and for single-label Fos staining through the full PVH (Stone et al., Brain Res (2009) 1291: 21-31). […] In the tail suspended mice the analogous reductions were 53.5±7.2% (LC) and 36.7±3.1 (PVH). […] These findings thus indicate that a dose of […] dp6FNE that has preferential inhibitory effects on the LC during depression exists.

The test system of series [3] is Fos expression in the PVH. The series is described as follows: Fos expression in the PVH in the tail suspension test. The following applies: dp6FNE 3 mg/kg i.p. before a 6 min tail suspension test, with prazosin 0.2 mg/kg. The class given is in vivo, mice. The method, then: as §1
Series [4] relates to CMS reduction of intake of sweetened milk. Description: Chronic mild stress (CMS)-anhedonia model, consumption of sweetened milk. The following applies: acute i.p. dp6FNE. The class given is in vivo.
Series [5] deals with home cage exploration in handling-stressed mice. The series is described as follows: Home cage activity after handling and injection stress. The format is in vivo. The note with it: i.p.; dp6FNE (1 mg/kg) in the presence of phentolamine; cirazoline (0.1 mg/kg). The method, then:
FIG. 15 depicts the effect of acute i.p. dp6FNE (1 mg/kg) or cirazoline (0.1 mg/kg), (N=1), on home cage activity in terms of rearing and ambulation, Veh (N=12).
6FNE has a more rapid and/or greater antidepressant effect than either of these agonists because 6FNE is the only known selective α-agonist that has full efficacy at all brain α-adrenoceptors and 6FNE works within minutes (Stone, et al. 2011) whereas cirazoline was given to mice over several months prior to testing in one model (forced swim test) in the above experiment by Doze et al, 2009. […] (Stone, E A, Lin Y, Quartermain, D, Unpublished results)
It is known that peripheral administration of α1-agonists without phentolamine impairs exploratory behavior in the open field (Yang, et al., J Pharmacol exp Ther 1990; 255: 1064-1070).

For series [6], the system named is model of chronic depression in mice (repeated forced swim). An excerpt:
We administered the pro-drugs shortly before one or more tests of antidepressant activity including reversal of immobility during tail suspension and forced swimming and attenuation of anhedonia produced by endotoxin administration. […] (Stone et al., Eur. J. Pharmacol. (2001) 420: 97-102) Because dp6FNE like all other antidepressants has an initial anorexic effect and acutely reduces the consumption of sweet solutions, in the test for anhedonia it was necessary to employ a non-nutritive hedonic behavior, FUST (sniffing of estrous female urine). […] (Stone et al., Neuropsychopharmacology (2011) 14: 319-331); Sun et al., J. Neurosci. Methods (2003) 126:35-40; Sun et al., Behavioral Pharmacology (2008) 19: 334-338).
Mice were swum for 15 min/d on 4 d and tested for the response to acute i.p dp6FNE (1 or 3 mg/kg) alone or in combination with 8-OHDPAT (0.05 mg/kg) and corticosterone (3 mg/kg) on the 5th and final swim (15 min after drug administration). […] Comparison groups receiving currently available antidepressants were treated acutely i.p. or chronically (14 d osmotic pumps) with either desmethylimipramine (DMI) (10 mg/kg), fluoxetine (5 mg/kg), escitalopram (5 mg/kg), bupropion (10 mg/kg) or ketamine (10 mg/kg).
Although corticosteroids are well known to produce depression (Gourley et al., Biol Psychiatry (2008) 64: 884-890), this occurs at high doses only. […] Mice were swum for 3 d and given either vehicle (0.8% ethanol) or corticosterone (12.5 μg/ml) in their drinking water.
As described in Example 4a, the cocktail was tested in a mouse model of chronic depression (RFS).

For series [7], the system named is immobility in tail suspension test. Description: Tail suspension test (TST). The format is in vivo, mice. The procedure: In the RFS study, mice were subjected to 4 daily 15 min swims as described above and were injected i.p. with either vehicle or dp6FNE (3 mg/kg) 15 min prior to the 5th swim. In the TST study, animals were injected similarly before a 6 min test. […] The animals were anesthetized and perfused for immuno-histochemistry 70 min after the start of the swim or tail suspension. Brains were processed as described previously for double-label immunofluorescent Fos/tyrosine hydroxylase staining of all sections through the LC and for single-label Fos staining through the full PVH (Stone et al., Brain Res (2009) 1291: 21-31).
To determine if dp6FNE was active in a more traditional test of antidepressant activity, it was given as above 15 min prior to a tail suspension test.
(§2) The first test involves an acute stress-induced model of depression (Steru, et al., Psychopharmacology 1985; 85: 367-370) whereas the second, a more prolonged, chronic depression that is more akin to chronic human depression (Stone, et al., Pharmacol Biochem Behav 2008; 91: 190-195).

In series [8] the test system is repeated open-space swim model. Description: Repeated open-space (forced) swim test. The class given is in vivo, mice. The following applies: acute i.p., dp6FNE at 1, 3 and 10 mg/kg given along with phentolamine 5 mg/kg i.p.
Source text: as §2

Molecules are shown by their SMILES.

As for `CC(C)(C)C(=O)Oc1cc(F)c(C(O)CN)cc1OC(=O)C(C)(C)C` (stereo not drawn) [dp6FNE, dipivalyl-6-fluoronorepinephrine], the “passage of the blood brain barrier” value in series [1] is recorded as “does pass the blood brain barrier”. The results for the “reduction in gene expression (Fos) in the PVH” value in series [2] and in series [3] were 13.0±20.1% and 36.7±3.1, respectively. For the same compound, in series [4], the “effect on CMS reduction of sweetened milk intake” value is “eliminates the CMS reduction of intake”. Further, the “effect on food intake (hypophagia)” value in series [4] is reported as “significant hypophagia”. The “behavioral inhibition in the home cage following handling and injection stress” value in series [5] was “rescue of home cage exploration”. Further, the “persistence of anti-immobility effect” value in series [6] (dp6FNE 0.5 mg/kg, i.p., repeated daily) is “at least 11 daily treatments”. Moreover, the “increase of distance swum” value in series [6] (dp6FNE 1 mg/kg acute i.p., 15 min before 5th swim, with prazosin 0.2 mg/kg) is on record as “+77.5±5.2%”. Further, in series [6] (dp6FNE 3 mg/kg acute i.p., 15 min before 5th swim, with prazosin 0.2 mg/kg), the “decrease of immobility, maximum effect” value is recorded as −39.4±16.6%. Also, in series [6] (repeated daily treatment, no formal measures), the “signs of toxicity (reduced arousal, disheveled fur coat) after repeated treatment” value was “no obvious signs of toxicity”. For the same compound, in series [6] (tube fed with prazosin 0.2 mg/kg, 45 min prior to the 5th swim), the “effect of oral administration on immobility” value is reported as “dose-dependent reduction in immobility”. In addition, in series [7] (3 mg/kg i.p. with prazosin 0.2 mg/kg, 15 min prior to test), the “immobility in tail suspension test” value was “significant reduction of immobility”. For the same compound, the “antidepressant action in the tail suspension test” value in series [7] (i.p. at doses of 1, 3 and 10 mg/kg, given along with phentolamine 5 mg/kg i.p.) is on record as “significant antidepressant action”. Besides, the entries for the “acute effect in the repeated open-space swim test” value in series [8] and in series [8] (listed as 6dpFNE) were “strong effect” and “significant antidepressant action”, respectively.
